Assay results from patent publication US20050080113A1, “Medicinal compositions” (priority 2001, published 2005).

| Compound | melting point [°C] |
| --- | --- |
| Cc1cccc(N2C=C(c3cc(C)nc(C)c3)SC2N)c1 (stereo not drawn) [H 7-6, [5 (2,6 dimethyl-4-pyridyl)-3 (3 methylphenyl)-1,3 thiazol-2 yl]amine] | 214 to 216 |
| CCc1nc(-c2ccc(F)c(C)c2)c(-c2ccnc(NC(C)=O)c2)s1 [H 82-4, N-[4 [2 ethyl-4 (4 fluoro-3 methylphenyl)-1,3 thiazol-5 yl]-2 pyridyl]acetamide] | 142 to 143 |
| CCc1nc(-c2ccc(C)cc2)c(-c2ccnc(NC(=O)Cc3ccccc3)c2)s1 [L 68-8, N-[4 [2 ethyl-4 (4-methylphenyl)-1,3 thiazol-5 yl]-2 pyridyl]phenylacetamide] | 128 to 129 |
| CCC(=O)Nc1cc(-c2sc(CSC)nc2-c2cccc(Cl)c2)ccn1 [H 102-3, N-[4 [4 (3 chlorophenyl)-2 (methylthio)methyl-1,3 thiazol-5 yl]-2 pyridyl]propionamide] | 118 to 119 |
| CSc1ccc(-c2nc(-c3cccc(Cl)c3)c(-c3ccnc(NC(C)=O)c3)s2)cc1 [H 30-5, N-[4 [4 (3 chlorophenyl)-2 [4 (methylthio)phenyl]-1,3 thiazol-5 yl]-2-pyridyl]acetamide] | 207 to 208 |
| CCC(=O)Nc1cc(-c2sc(C(C)(F)F)nc2-c2cccc(Cl)c2)ccn1 [H 102-4, N-[4 [4 (3 chlorophenyl)-2 (1,1 difluoroethyl)-1,3 thiazol-5 yl]-2 pyridyl]propionamide] | 141 to 142 |
| Cc1cccc(-c2nc(-c3ccccc3Cl)sc2-c2ccnc(NC(=O)c3ccccc3)c2)c1 [D 16-13, N-[4 [2 (2 chlorophenyl)-4 (3 methylphenyl)-1,3 thiazol-5 yl]-2 pyridyl]benzamide] | 138 to 140 |
| CCC(=O)Nc1cc(-c2sc(C(C)=O)nc2-c2cccc(Cl)c2)ccn1 [H 107, N-[4 [2 acetyl-4 (3-chlorophenyl)-1,3 thiazol-5 yl]-2 pyridyl]propionamide] | 115 to 117 |
| CCOC(=O)Cc1nc(-c2cccc(Cl)c2)c(-c2ccnc(NC(C)=O)c2)s1 [H 103-2, ethyl [5 (2 acetylamino-4-pyridyl)-4 (3 chlorophenyl)-1,3 thiazol-2 yl]acetate] | 99 to 100 |
| Cc1cccc(-c2nc(-c3ccc(F)cc3)sc2-c2ccnc(NC(=O)Cc3ccccc3)c2)c1 [D 14, N-[4-[2-(4-fluorophenyl)-4-(3-methylphenyl)-1,3-thiazol-5-yl]-2-pyridyl]phenylacetamide] | 187 to 190 |
| Cc1cc(C)cc(-c2nc(NC(=O)c3cccnc3)sc2-c2ccnc(C)c2)c1 [H 42-1, N-[4-(3,5-dimethylphenyl)-5-(2-methyl-4-pyridyl)-1,3-thiazol-2-yl]nicotinamide] | 203 to 206 |
| Cc1cc(C)cc(-c2nc(NC(=O)c3ccccc3)sc2-c2ccncc2)c1 [23-197, N-[4 (3,5 dimethylphenyl)-5 (4 pyridyl)-1,3 thiazol-2-yl]benzamide] | 285 to 286 |
| Cc1cccc(-c2nc(-c3ccc(F)cc3)sc2-c2ccnc(N)c2)c1 [H 18-1, 4 [2 (4 fluorophenyl)-4-(3 methylphenyl)-1,3 thiazol-5 yl]-2 pyridylamine] | 160 to 162 |
| Cc1cccc(-c2nc(-c3ccc(F)cc3)sc2-c2ccnc(C)c2)c1 [H 14-4, 2 (4 fluorophenyl)-4 (3-methylphenyl)-5 (2 methyl-4 pyridyl)-1,3 thiazole] | 89 to 91 |
| CCNC(=O)Nc1cc(-c2sc(CC)nc2-c2cccc(Cl)c2)ccn1 [H 109, N-[4 [4 (3 chlorophenyl)-2-ethyl-1,3 thiazol-5 yl]-2 pyridyl]-N′-ethyl-urea] | 177 to 180 |
| CCc1nc(-c2cccc(Br)c2)c(-c2ccnc(N)c2)s1 [H 75-2, 4 [4 (3 bromophenyl)-2-ethyl-1,3 thiazol-5 yl]-2 pyridylamine] | 132 to 134 |
| CCC(=O)Nc1cc(-c2sc(CC)nc2-c2cccc(C(C)C)c2)ccn1 [H 84-7, N-[4 [2 ethyl-4 [3 (1-methylethyl)phenyl]-1,3 thiazol-5 yl]-2 pyridyl]propionamide] | 93 to 94 |
| CCCNC(=O)Nc1nc(-c2cc(C)cc(C)c2)c(-c2ccncc2)s1 [23-202, N-[4 (3,5 dimethylphenyl)-5 (4 pyridyl)-1,3 thiazol-2 yl]-N′-propylurea] | 128 to 130 |
| CCC(=O)Nc1cc(-c2sc(CC)nc2-c2ccc(Cl)cc2)ccn1 [H 84-6, N-[4 [4 (4 chlorophenyl)-2-ethyl-1,3 thiazol-5 yl]-2 pyridyl]propionamide] | 152 to 153 |
| Cc1cccc(-c2nc(CCc3ccccc3)sc2-c2ccnc(C)c2)c1 [H 14-8, 4 (3 methylphenyl)-5 (2-methyl-4 pyridyl)-2 (2 phenylethyl)-1,3 thiazole] | 64 to 65 |
| CCc1nc(-c2cccs2)c(-c2ccnc(N)c2)s1 [H 20-12, 4 [2 ethyl-4 (2 thienyl)-1,3 thiazol-5 yl]-2 pyridylamine] | 159 to 160 |
| CCc1nc(-c2cccc(C(C)C)c2)c(-c2ccnc(NC(C)=O)c2)s1 [H 82-8, N-[4 [2 ethyl-4 [3 (1-methylethyl)phenyl]-1,3 thiazol-5 yl]-2 pyridyl]acetamide] | 116 to 117 |
| Cc1cc(C)cc(-c2nc(-c3ccc(S(C)(=O)=O)cc3)sc2-c2cc(C)nc(C)c2)c1 [H 58-3, 4 (3,5 dimethylphenyl)-5-(2,6 dimethyl-4 pyridyl)-2 (4 methylsulfonylphenyl)-1,3-thiazole] | 217 to 220 |
| CSc1ccc(-c2nc(-c3cccc(C)c3)c(-c3ccnc(F)c3)s2)cc1 [H 15, 5-(2-fluoro-4-pyridyl)-4-(3-methylphenyl)-2-[4-(methylthio)phenyl]-1,3-thiazole] | 97 to 100 |
| Cc1cccc(-c2nc(-c3ccc(S(C)(=O)=O)cc3)sc2N2C=CC=CC2N2CCCCC2)c1 (stereo not drawn) [H 35-2, 4 (3 methylphenyl)-2 (4-methylsulfonylphenyl)-5 (2 piperidino-1 pyridyl)-1,3 thiazole] | 155 to 157 |
| Cc1cc(C)cc(-c2nc(NC(=O)c3cccnc3)sc2-c2cc(C)nc(C)c2)c1 [H 42-2, N-[4 (3,5 dimethylphenyl)-5 (2,6 dimethyl-4 pyridyl)-1,3 thiazol-2 yl]nicotinamide] | 267 to 268 |

Now from value to compound:

| melting point [°C] | Compound |
| --- | --- |
| 162 to 163 | CC(=O)Nc1cc(-c2sc(C)nc2-c2cccc(C)c2)ccn1 [H 82-10, N-[4 [2 methyl-4 (3-methylphenyl)-1,3 thiazol-5 yl]-2 pyridyl]acetamide] |
| 128 to 129 | CCOC(=O)Cc1nc(-c2cccc(C)c2)c(-c2ccnc(N)c2)s1 [H 18-5, Ethyl [5 (2 amino-4-pyridyl)-4 (3 methylphenyl)-1,3 thiazol-2 yl]acetate] |
| 170 to 172 | CNc1nc(-c2cccc(C)c2)c(-c2ccnc(NC3CCCC3)c2)s1 [H 36-3, N-methyl-[5 (2-cyclopentylamino-4 pyridyl)-4 (3 methylphenyl)-1,3 thiazol-2-yl]amine] |
| 85 to 86 | CCc1nc(-c2cccc(C)c2)c(-c2ccnc(NC(=O)CC3CCCC3)c2)s1 [H 89, N-[4 [2 ethyl-4 (3-methylphenyl)-1,3 thiazol-5 yl]-2 pyridyl]cyclopentylacetamide] |
| 197 to 199 | Cc1cccc(-c2nc(-c3ccc(S(C)(=O)=O)cc3)sc2-c2ccnc(NC3CCCCC3)c2)c1 [H 36-5, N-cyclohexyl-4-[4-(3-methylphenyl)-2-(4-methylsulfonylphenyl)-1,3-thiazol-5-yl]-2-pyridylamine] |
| 242 to 243 | Cc1cccc(-c2nc(NC(=O)c3ccc(C)nc3)sc2-c2ccnc(NC3CCCCC3)c2)c1 [H 46-1, N-[5 (2 cyclohexylamino-4-pyridyl)-4 (3 methylphenyl)-1,3 thiazol-2 yl]-6-methylnicotinamide] |
| 82 to 84 | Cc1cccc(-c2nc(Cc3ccccc3)sc2-c2ccnc(C)c2)c1 [H 14-7, 4 (3 methylphenyl)-5 (2-methyl-4 pyridyl)-2 (phenylmethyl)-1,3 thiazole] |
| 206 to 208 | Nc1nc(-c2cccc(Cl)c2)c(-c2ccnc(N3CCCCC3)c2)s1 [H 35-1, [4 (3 chlorophenyl)-5 (2-piperidino-4 pyridyl)-1,3 thiazol-2 yl]amine] |
| 113 to 114 | CSCc1nc(-c2cccc(C)c2)c(-c2ccnc(N)c2)s1 [H 113-1, 4 [4 (3 methylphenyl)-2-(methylthio)methyl-1,3 thiazol-5 yl]-2 pyridylamine] |
| 149 to 150 | CCc1nc(-c2ccc(Cl)cc2)c(-c2ccnc(NC(=O)CC3CCCC3)c2)s1 [H 90-2, N-[4 [4 (4 chlorophenyl)-2-ethyl-1,3 thiazol-5 yl]-2 pyridyl]cyclopentylacetamide] |
| 171 to 172 | Cc1cccc(-c2nc(N(C)C(=O)c3ccc(Cl)nc3)sc2-c2ccnc(NC3CCCCC3)c2)c1 [H 44-4, 6 chloro-N-[5 (2-cyclohexylamino-4 pyridyl)-4 (3 methylphenyl)-1,3 thiazol-2-yl]-N-methylnicotinamide] |
| 233 to 234 | Cc1cccc(-c2nc(NC(=O)c3ccc(C)nc3)sc2-c2ccnc(C)c2)c1 [H 45, 6 methyl-N-[4 (3-methylphenyl)-5 (2 methyl-4 pyridyl)-1,3 thiazol-2-yl]nicotinamide] |
| 194 to 195 | Nc1nc(-c2ccc(F)cc2)c(-c2ccnc(NC3CCCCC3)c2)s1 [H 36-1, [5 (2 cyclohexylamino-4-pyridyl)-4 (4 fluorophenyl)-1,3 thiazol-2 yl]amine] |
| 134 to 135 | CCC(=O)Nc1cc(-c2sc(C)nc2-c2cccc(Cl)c2)ccn1 [H 30-7, N-[4-[4-(3-chlorophenyl)-2-methyl-1,3-thiazol-5-yl]-2-pyridyl]propionamide] |
| 176 to 177 | Cc1cccc(-c2nc(N(C)C(=O)c3ccc(C)nc3)sc2-c2ccnc(NC3CCCC3)c2)c1 [L 67-2, N-[5 (2 cyclopentylamino-4-pyridyl)-4 (3 methylphenyl)-1,3 thiazol-2 yl]-N, 6-dimethylnicotinamide] |
| 350 to 351 | CCC(=O)Nc1cc(-c2sc(C3CCN(C)CC3)nc2-c2cccc(Cl)c2)ccn1.Cl.Cl |
